Results taken from publication PMC7282810, “Existence and functions of a kisspeptin neuropeptide signaling system in a non-chordate deuterostome species” (eLife, 2020).
Entries after “also recorded” stand apart in the source; their conditions may differ. Read-outs that look alike come from different tables or passages of the source. Where a SMILES comes first, the peptide text is derived from it. Bridges are numbered along the chain shown (N, C = ends). Where no end group is shown, it is not given here. [ ]: non-standard residue; d: D form.

How the values were obtained:
AjKissR1 [1] = target: T1, AjKissR1 (Apostichopus japonicus, UniProt A0A5B7LK60); assay: cell-based; format: cell-based
T1 sequence (A0A5B7LK60 1-378): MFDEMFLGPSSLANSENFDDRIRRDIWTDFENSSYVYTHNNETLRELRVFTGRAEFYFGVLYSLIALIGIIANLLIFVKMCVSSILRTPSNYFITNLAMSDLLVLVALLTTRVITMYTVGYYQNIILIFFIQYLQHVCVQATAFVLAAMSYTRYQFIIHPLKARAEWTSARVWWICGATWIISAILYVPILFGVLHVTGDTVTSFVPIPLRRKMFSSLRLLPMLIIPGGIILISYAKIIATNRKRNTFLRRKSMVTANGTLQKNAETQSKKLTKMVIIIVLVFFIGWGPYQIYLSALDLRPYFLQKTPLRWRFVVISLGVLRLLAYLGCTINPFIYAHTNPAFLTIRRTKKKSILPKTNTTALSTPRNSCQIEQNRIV
Method: (§1) The fluorescent Ca^2+ indicator Fura-2/AM was used to detect intracellular calcium flux ([Li et al., 2010]). Briefly, the HEK293 cells expressing the AjKissR1, AjKissR2 or vertebrate kisspeptin receptor were washed twice with PBS and suspended at 5 × 10^6 cells/mL in Hanks’ balanced salt solution. The cells were then loaded with 3.0 μM Fura-2/AM for 30 min and washed twice in Hanks’ solution. They were then stimulated with the indicated concentrations of different predicted A. japonicus kisspeptins or vertebrate kisspeptins. Finally, intracellular calcium flux was measured for 60 s, by determining the ratio of excitation wavelengths at 340 and 380 nm using a fluorescence spectrometer (Infinite 200 PRO, Tecan, Männedorf, Switzerland). All of the experiments for measuring Ca^2+ mobilization were repeated independently at least three times.

AjKissR2 [2] = target: T2, AjKissR2 (Apostichopus japonicus, UniProt A0A5B7LIE4); assay: cell-based; format: cell-based; settings: for AUC: Ca2+ trace area under curve, HEK293/AjKissR2
T2 sequence (A0A5B7LIE4 1-327): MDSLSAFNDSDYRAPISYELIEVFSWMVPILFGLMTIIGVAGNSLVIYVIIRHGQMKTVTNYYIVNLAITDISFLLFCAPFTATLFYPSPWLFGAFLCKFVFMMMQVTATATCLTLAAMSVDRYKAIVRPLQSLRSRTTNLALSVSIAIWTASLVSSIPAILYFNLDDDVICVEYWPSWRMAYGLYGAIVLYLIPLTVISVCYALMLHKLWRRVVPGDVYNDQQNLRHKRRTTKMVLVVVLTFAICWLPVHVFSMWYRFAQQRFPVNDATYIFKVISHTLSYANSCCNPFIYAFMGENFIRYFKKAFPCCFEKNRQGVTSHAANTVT
Method: as §1

[3] = tested on: human kisspeptin receptor (HsKiss1R); assay: Intracellular Ca2+ mobilization (Fura-2/AM) in HsKiss1R-expressing HEK293 cells; format: cell-based; settings: 1.0 μM peptide, HEK293, Fura-2/AM
Method: as §1

[4] = tested on: zebrafish kisspeptin receptor DrKiss1Ra; assay: Intracellular Ca2+ mobilization (Fura-2/AM) in DrKiss1Ra-expressing HEK293 cells; format: cell-based; settings: 1.0 μM peptide, HEK293, Fura-2/AM
Method: as §1

[5] = tested on: zebrafish kisspeptin receptor DrKiss1Rb; assay: Intracellular Ca2+ mobilization (Fura-2/AM) in DrKiss1Rb-expressing HEK293 cells; format: cell-based; settings: 1.0 μM peptide, HEK293, Fura-2/AM
Method: as §1

AjKissR1 [6] = target: T1, AjKissR1; assay: Ligand competition binding assay (FITC-AjKiss1a, FACS), HEK293/AjKissR1; settings: 1.0 μM FITC-AjKiss1a, read-out: IC50 (competitive displacement of FITC-AjKiss1a)
Method: (§2) A fluorescence-activated cell sorter (FACS) was used to detect the binding ability of kisspeptins with AjKissR1 or AjKissR2. HEK293 cells expressing FLAG–AjKissR1 or FLAG–AjKissR2 were washed with PBS that contained 0.2% bovine serum albumin (FACS buffer). We designed and synthesized an N-terminal FITC-labeled AjKiss1a peptide (see 'Key resources table'). Different kisspeptins were diluted in the FACS buffer to different concentrations, then added to cells that were incubated on ice for 60–90 min. Cells were washed thrice with the FACS buffer and re-suspended in the FACS buffer with 1% paraformaldehyde for 15 min. The binding activity of the indicated kisspeptin peptides with AjKissR1 or AjKissR2 was determined by measuring the fluorescence of FITC and was presented as a percentage of total binding.

AjKissR2 [7] = target: T2, AjKissR2; assay: Ligand competition binding assay (FITC-AjKiss1a, FACS), HEK293/AjKissR2; settings: 1.0 μM FITC-AjKiss1a, read-out: IC50 (competitive displacement of FITC-AjKiss1a)
Method: as §2

AjKissR2-EGFP = assay: Receptor internalization (translocation) by confocal microscopy, AjKissR2-EGFP; format: cell-based, Apostichopus japonicus; settings: 1.0 μM ligand, 60 min
Method: For receptor-surface expression analysis, HEK293 cells expressing AjKissR1/2-EGFP were seeded onto glass coverslips in 12-well plates, coated with 0.1 mg/mL poly-L-lysine, and allowed to attach overnight under normal growth conditions ([Li et al., 2010]). The cells were washed three times with PBS and further stained with the membrane probe DiI (Beyotime) at 37°C for 5–10 min, fixed with 4% paraformaldehyde for 10 min, and then incubated with DAPI (Beyotime) for 5–10 min. For the translocation assays, the receptor-expressing cells were treated with 1.0 μM of various stimuli for 60 min, washed three times with PBS and then fixed with 4% paraformaldehyde in PBS for 10 min at room temperature. Finally, the cells were mounted in mounting reagent (DTT/PBS/glycerol, 1:8:2) and visualized by fluorescence microscopy on a Zeiss laser scanning confocal microscope, which was attached to a Zeiss Axiovert 200 microscope and linked to an LSM5 computer system.

AjKissR2 [8] = target: T2, AjKissR2; format: cell-based; settings: Ca2+ trace (Fura-2/AM) area under curve, AjKiss1a at Log[M] -10 (100 pM), HEK293/AjKissR2, 68 s trace
[9] = tested on: cultured oocytes of sea cucumber; assay: ERK1/2 phosphorylation (western blot) in cultured ovary / oocytes of sea cucumber; format: cell-based, Apostichopus japonicus; settings: pep234 1.0 μM, 4-hr pre-treatment; DrKiss1-10 or AjKiss1b-10 administrated cells
Method: To examine the phosphorylation of ERK, cells that expressed AjKissr1/2 or other GPR54s were incubated for the indicated times with different concentrations of kisspeptins. Subsequently, cells were lysed with lysis buffer (Beyotime) that contained protease inhibitor (Roche) at 4°C for 30 min on a rocker and then scraped. Proteins were then electrophoresed on a 10% SDS polyacrylamide gel and transferred to polyvinylidene difluoride (PVDF) membranes. Membranes were blocked with 5% skimmed milk, then probed with rabbit anti-phospho-ERK1/2(Thr^202/Tyr^204) antibody (1:2000; Cell Signaling Technology), followed by detection using HRP-conjugated goat anti-rabbit IgG (Beyotime). Blots were stripped and reprobed using anti-ERK1/2 antibody (1:2000; Cell Signaling Technology) as a control for protein loading.
(§3) For in vitro experiments, the ovary and respiratory tree tissues were cut into small pieces of approximately 1 mm^3 and cultured in Leibovitz L-15 medium (HyClone) supplemented with 12.0 g/L NaCl, 0.32 g/L KCl, 0.36 g/L CaCl2, 0.6 g/L Na2SO4, 2.4 g/L MgCl2, 0.6 g/L glucose at 18°C in a humidified incubator ([Wang et al., 2020]). For ERK1/2 phosphorylation or immunofluorescence assays, samples were evaluated or fixed after 2 hr of ligand/PBS administration, with a 4 hr pre-treatment of pep234/PBS.

[10] = tested on: cultured oocytes of sea cucumber; assay: Immunofluorescence staining of p-ERK signal in cultured oocytes (confocal microscopy); format: cell-based, Apostichopus japonicus; settings: 4-hr pre-treatment with pep234
Method: Paraffin sections were baked at 60°C for 2–4 hr and placed in xylene for 15 min, twice. The slides were washed twice in 100% ethanol for 10 min each, then in 95% ethanol for 10 min, 85% ethanol for 5 min, 70% ethanol for 5 min, and 50% ethanol for 5 min, followed by washing with dH2O for 5 min, and finally washing with PBS for 5 min. Antigen unmasking was performed in sodium citrate buffer (pH 6) for 10 min at 97°C, and then cooled to room temperature. Endogenous peroxidases were blocked by 10 min incubation in 3.0% hydrogen peroxide. Nonspecific antigens were blocked by a 60 min incubation in 0.3% bovine serum albumin (BSA) in TBST. Slides were incubated with primary antibodies overnight after removing the blocking solution, followed by 2 hr incubation with fluorescein isothiocyanate (FITC)-conjugated secondary antibodies (FITC-labeled goat anti-rabbit IgG (H+L), Beyotime). […]
as §3

[11] = target: FLAG–AjKissR1 (Apostichopus japonicus)
FLAG–AjKissR2 = target: T3, FLAG–AjKissR2 (Apostichopus japonicus); assay: competition with 1.0 uM FITC-AjKiss1a
T3 chain: T2 sequence (A0A5B7LIE4 1-327)

[12] = target: FLAG–AjKissR1 (Apostichopus japonicus); assay: flow cytometry on cells; ligand competition: 1.0 uM FITC-AjKiss1a with unlabeled kisspeptins at the indicated concentrations on HEK293 cells expressing FLAG-AjKissR1 or FLAG-AjKissR2; on ice 60-90 min; PBS with 0.2% BSA; FITC fluorescence as percentage of total binding
[13] = fit of AUC vs Log[AjKiss1a]M, source data Figure 3B1
[14] = log(agonist) vs. response (three parameters) fit of AUC, AjKiss1a on AjKissR2, 5 points

CC(C)C[C@H](NC(=O)[C@H](CO)NC(=O)CNC(=O)[C@H](C)N)C(=O)N[C@@H](CC(=O)O)C(=O)N[C@H]1CSSC[C@@H](C(=O)N[C@@H](CCC(=O)O)C(=O)N[C@@H](CC(=O)O)C(=O)N[C@H](C(=O)N[C@@H](CCC(=O)O)C(=O)N[C@@H](CCCNC(=N)N)C(=O)N[C@@H](CCCNC(=N)N)C(=O)NCC(=O)N[C@@H](CCCNC(=N)N)C(=O)N[C@@H](CCC(N)=O)C(=O)N2CCC[C@H]2C(=O)N[C@@H](CC(N)=O)C(=O)N[C@@H](CCCNC(=N)N)C(=O)N[C@@H](CC(N)=O)C(=O)N[C@@H](C)C(=O)N[C@@H](Cc2c[nH]cn2)C(=O)N[C@@H](Cc2ccc(O)cc2)C(=O)N[C@@H](CCCNC(=N)N)C(=O)N[C@H](C(=O)N[C@@H](CC(C)C)C(=O)N2CCC[C@H]2C(=O)N[C@@H](Cc2ccccc2)C(N)=O)[C@@H](C)O)C(C)C)NC(=O)[C@H](CO)NC(=O)[C@H](C)NC(=O)[C@H](CCC(=O)O)NC(=O)[C@H](CC(C)C)NC1=O [AjKiss1a] (H-AGSLDCLEASCEDVERRGRQPNRNAHYRTLPF-NH2; disulfide 6-11)
EC50 (AjKissR1 [1]): 80.8 nM | AUC (Ca2+ mobilization) (AjKissR1 [1]; Log[AjKiss1a]M -6): 18.82 | AUC (Ca2+ mobilization) (AjKissR1 [1]; Log[AjKiss1a]M -7): 12.93 | AUC (Ca2+ mobilization) (AjKissR1 [1]; Log[AjKiss1a]M -8): 8.793 | AUC (Ca2+ mobilization) (AjKissR1 [1]; Log[AjKiss1a]M -9): 6.715 | AUC (Ca2+ mobilization) (AjKissR1 [1]; Log[AjKiss1a]M -10): 4.474 | Bottom (best-fit value) (AjKissR1 [1]; [13]): 5.962 | LogEC50 (best-fit value) (AjKissR1 [1]; [13]): -7.093 | Span (best-fit value) (AjKissR1 [1]; [13]): 13.69 | Top (best-fit value) (AjKissR1 [1]; [13]): 19.65 | EC50 (AjKissR2 [2]): 1.98 nM | AUC (AjKissR2 [2]; AjKiss1a at Log[M] -6 (1 μM)): 24.14 | AUC (AjKissR2 [2]; AjKiss1a at Log[M] -7 (100 nM)): 24.83 | AUC (AjKissR2 [2]; AjKiss1a at Log[M] -8 (10 nM)): 24.2 | AUC (AjKissR2 [2]; AjKiss1a at Log[M] -9 (1 nM)): 11.14 | Bottom (best-fit value) (AjKissR2 [2]; [14]): 6.057 | Span (best-fit value) (AjKissR2 [2]; [14]): 19.28 | Top (best-fit value) (AjKissR2 [2]; [14]): 25.34 | LogEC50 (best-fit value) (AjKissR2 [2]; log(agonist) vs. response (three parameters) fit of AUC, Log[AjKiss1a]M, AjKissR2, 5 points): -8.703 | Activation of HsKiss1R, Ca2+ mobilization (in words) [3]: could activate; also recorded: could potentiate | Activation of DrKiss1Ra, Ca2+ mobilization (in words) [4]: could activate; also recorded: could potentiate | Activation of DrKiss1Rb, Ca2+ mobilization (in words) [5]: could activate; also recorded: could potentiate | IC50 (AjKissR1 [6]): 568 nM | IC50 (AjKissR2 [7]): 95.2 nM | Internalization of AjKissR2-EGFP from the plasma membrane to the cytoplasm (in words) (AjKissR2-EGFP): significant internalization | AUC (AjKissR2 [8]): 7.592

Ac-[dA]NWNGFG[dW]RF-NH2 [pep234, vertebrate kisspeptin antagonist]
Block of kisspeptin-induced ERK phosphorylation signal, western blot (in words) [9]: blocked | Inhibition of AjKiss1b-10-induced p-ERK signal in oocytes, confocal microscopy (in words) [10]: inhibition

B1: AjKiss1b (C-terminal amidated) (peptide)
peptide: SAVKNKNKSRARPPLLPF-NH2
EC50 of intracellular Ca2+ mobilization (Fura-2/AM) in HEK293 cells expressing FLAG-AjKissR1 [11]: 8.06 nM | IC50 (FLAG–AjKissR2): 1250 nM | IC50 [12]: 353 nM
